For assay [1], the target named is T1, GST-LXRβ ligand-binding domain (Homo sapiens, UniProt P55055, DUP175-175).
T1 construct: amino acids 156-461; NP009052; made in house; host or cells: E. coli
T1 sequence (P55055 with tags, fused parts or gaps DUP175-175): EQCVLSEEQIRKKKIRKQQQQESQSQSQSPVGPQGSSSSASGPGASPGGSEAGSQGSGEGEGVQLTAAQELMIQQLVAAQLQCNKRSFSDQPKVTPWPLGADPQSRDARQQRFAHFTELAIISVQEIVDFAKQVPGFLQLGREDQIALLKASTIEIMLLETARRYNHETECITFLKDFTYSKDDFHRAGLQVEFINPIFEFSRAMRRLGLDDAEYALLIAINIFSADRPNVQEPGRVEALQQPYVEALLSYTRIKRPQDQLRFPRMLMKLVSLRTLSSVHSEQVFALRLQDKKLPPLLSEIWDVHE
Briefly: TR-FRETβ activity assay (LXRβ-LBD / NCoA3 coactivator peptide, prestimulated with 24(S)-25-epoxycholesterol). In kind it is biochemical. Details: key to behavior in FRET assay: ag=agonist; ia=inverse agonist. The note with it: for EC50: 1 μM 24(S)-25-epoxycholesterol as prestimulating agonist, read-out: FRETβ activity range (EC50); for behavior in FRET assay: agonist or inverse agonist. Summed up: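 E. coli-expressed GST-LXRβ LBD (aa 156-461) at 76 nM with biotinylated NCoA3 coactivator peptide (400 nM), in 240 mM KCl, BSA and Triton-X-100. Anti-GST-Tb cryptate/streptavidin-XL665 TR-FRET after 1 h equilibration at 4 °C, excitation 340 nm, emission 615 and 665 nm. Run in triplicate.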

Assay [2] has as its target T2, LXRα ligand-binding domain (LBD) (Homo sapiens, UniProt Q13133).
T2 construct: expressed in transfected cells; host or cells: HEK293
T2 sequence (Q13133 155-447): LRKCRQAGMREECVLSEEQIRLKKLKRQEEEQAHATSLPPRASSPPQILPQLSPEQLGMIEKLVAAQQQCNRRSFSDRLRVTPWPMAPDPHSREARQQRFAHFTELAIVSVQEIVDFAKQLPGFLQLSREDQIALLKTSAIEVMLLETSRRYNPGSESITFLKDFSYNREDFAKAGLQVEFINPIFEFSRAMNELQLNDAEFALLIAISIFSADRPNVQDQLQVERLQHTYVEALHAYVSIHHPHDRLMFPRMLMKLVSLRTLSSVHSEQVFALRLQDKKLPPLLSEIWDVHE
As to the kind of experiment: LXR Gal4 reporter transient transfection assay (M2H), Gal4α LBD. In kind it is cell-based. The note with it: HEK293 cells; for EC50: read-out: M2H Gal4α LBD activity range (EC50). The method, then: (§1) The tested compounds were usually dissolved, tested and stored as 20 mM stock solutions in DMSO. Since sulfonyl acetic acid derivatives tend to decarboxylate under these conditions, these stock solutions were prepared, tested and stored as 20 mM DMSO stock solutions containing 100 mM trifluoroacetic acid (5 equivalents). Sulfonyl acetic acid derivatives are shelf stable as solid at rt for long time as reported by Griesbrecht et al. (Synlett 2010:374) or Faucher et al. (J. Med. Chem. 2004; 47:18).
(§2) LXR Gal4 Reporter Transient Transfection Assays
(§3) LXRα and LXRβ activity status was determined via detection of interaction with coactivator and corepressor proteins in mammalian two-hybrid experiments (M2H). For this, via transient transfection the full length (FL) proteins of LXRα (amino acids 1-447; NP005684; SEQ ID NO:7) or LXRβ-(amino acids 1-461; NP009052; SEQ ID NO:8) or the ligand-binding domains (LBD) of LXRα (amino acids 155-447 SEQ ID NO:3) or LXRβ (amino acids 156-461; SEQ ID NO:4) were expressed from pCMV-AD (Stratagene) as fusions to the transcriptional activation domain of NFkB. As cofactors, domains of either the steroid receptor coactivator 1 (SRC1; amino acids 552-887; SEQ ID NO:5) or of the corepressor NCoR (amino acids 1903-2312 SEQ ID NO:6) were expressed as fusions to the DNA binding domain of the yeast transcription factor GAL4 (from pCMV-BD; Stratagene). Interaction was monitored via activation of a coexpressed Firefly Luciferase Reporter gene under control of a promoter containing repetitive GAL4 response elements (vector pFRLuc; Stratagene). Transfection efficiency was controlled via cotransfection of constitutively active pRL-CMV Renilla reniformis luciferase reporter (Promega). HEK293 cells were grown in minimum essential medium (MEM) with 2 mM L-glutamine and Earle's balanced salt solution supplemented with 8.3% fetal bovine serum, 0.1 mM non-essential amino acids, 1 mM sodium pyruvate, at 37° C. in 5% CO2. 3.5×10^4 cells/well were plated in 96-well cell culture plates in growth medium supplemented with 8.3% fetal bovine serum for 16-20 h to ˜90% confluency. For transfection, medium was taken off and LXR and cofactor expressing plasmids as well as the reporter plasmids are added in 30 μL OPTIMEM/well including polyethylene-imine (PEI) as vehicle. Typical amounts of plasmids transfected/well: pCMV-AD-LXR (5 ng), pCMV-BD-cofactor (5 ng), pFR-Luc (100 ng), pRL-CMV (0.5 ng). Compound stocks were prepared in DMSO, prediluted in MEM to a total volume of 120 μL, and added 4 h after addition of the transfection mixture (final vehicle concentration not exceeding 0.2%). Cells were incubated for additional 16 h, lysed for 10 min in 1× Passive Lysis Buffer (Promega) and Firefly and Renilla luciferase activities were measured sequentially in the same cell extract using buffers containing D-luciferine and coelenterazine, respectively. Measurements of luminescence were done in a BMG-Iuminometer.

Assay [3] has as its target T3, LXRβ ligand-binding domain (LBD) (Homo sapiens, UniProt P55055, DUP175-175).
T3 construct: LXRβ (amino acids 156-461); expressed in transfected cells; host or cells: HEK293
T3 sequence (P55055 with tags, fused parts or gaps DUP175-175): T1 sequence (P55055 with tags, fused parts or gaps DUP175-175)
As to the kind of experiment: LXR Gal4 reporter transient transfection assay (M2H), Gal4β LBD. The note with it: HEK293 cells; for EC50: read-out: M2H Gal4β LBD activity range (EC50). Type of assay: cell-based. The method, then:
as §1, §2, §3

Regarding `CCOC(=O)Cc1cccc(-c2ccc(CN(Cc3ccc(C(F)(F)F)o3)S(=O)(=O)c3c(C)cc(C)cc3C)cc2)c1` [Example 1], the concentration giving a half-maximal response (EC50) in assay [1] is more than 10000 nM; in assay [2], 100 to 1000 nM; in assay [3], less than 100 nM. Besides, the “behavior in FRET assay” value in assay [1] is “ia”.

As for `Cc1cc(C)c(S(=O)(=O)N(Cc2ccc(-c3cccc(C4(C(=O)O)CCOCC4)c3)cc2)Cc2ccc(C(F)(F)F)o2)c(C)c1` [7/8], the EC50 in assay [1] was more than 10000 nM; in assay [2], 100 to 1000 nM; in assay [3] it was 100 to 1000 nM. Also, in assay [1], the “behavior in FRET assay” value is reported as “ia”.

Take `COc1cc(-c2ccc(CO)c(C(C)(C)C(=O)[O-])c2)ccc1CN(Cc1ccc(C(F)(F)F)o1)S(=O)(=O)c1c(C)ccc2ccccc12.[Na+]` [Example 23, Sodium 2-(4-(hydroxymethyl)-3′-methoxy-4′-(((2-methyl-N-((5-(trifluoromethyl)furan-2-yl)methyl)naphthalene)-1-sulfonamido)methyl)-[1,1′-biphenyl]-3-yl)-2-methylpropanoate]: the values for the EC50 in assay [1], in assay [2] and in assay [3] were 100 to 1000 nM, less than 100 nM and less than 100 nM, respectively. The “behavior in FRET assay” value in assay [1] is “ia”.

With `Cc1cc(C)c(S(=O)(=O)N(Cc2ccc(N3CCCC(C(C)(C)C(=O)O)C3)cc2)Cc2ccc(C(F)(F)F)o2)c(C)c1` (stereo not drawn) [16/2], the EC50 in assay [1] was more than 10000 nM; in assay [2], 100 to 1000 nM; in assay [3] it was 100 to 1000 nM. Besides, the “behavior in FRET assay” value in assay [1] is on record as “ia”.

Regarding `COc1ccc(C(C)(C)C(=O)O)cc1-c1ccc(CN(Cc2ccc(C(F)(F)F)o2)S(=O)(=O)c2c(C)cc(C)cc2C)cc1` [7/10], the EC50 in assay [1] lay within 1000 to 10000 nM; in assay [2], 1000 to 10000 nM; in assay [3], 100 to 1000 nM. Further, in assay [1], the “behavior in FRET assay” value is recorded as “ia”.

For `Cc1cc(C)c(S(=O)(=O)N(Cc2ccc(-c3cccc(S(=O)(=O)O)c3)cc2)Cc2ccc(C(F)(F)F)o2)c(C)c1` [Example 3, 4′-(((2,4,6-Trimethyl-N-((5-(trifluoromethyl)furan-2-yl)methyl)phenyl)sulfon-amido)methyl)-[1,1′-biphenyl]-3-sulfonic acid], in assay [1], the EC50 was in the range of 1000 to 10000 nM and the “behavior in FRET assay” value is “ia”. Also, in assay [2], the “M2H Gal4α LBD activity range (EC50)” value was “inactive”. In assay [3], the “M2H Gal4β LBD activity range (EC50)” value was “inactive”.

Turning to `Cc1cc(C)c(S(=O)(=O)N(Cc2ccc(-c3cc(F)cc(C4(C(=O)O)CC4)c3)cc2)Cc2ccc(C(F)(F)F)o2)c(C)c1` [7/7], the EC50 in assay [1] was 100 to 1000 nM; in assay [2], 100 to 1000 nM; in assay [3], less than 100 nM. In assay [1], the “behavior in FRET assay” value is given as “ia”.

With `Cc1cc(C)c(S(=O)(=O)N(Cc2ccc(C(F)(F)F)o2)C(C)c2ccc(-c3cccc(CC(=O)O)c3)cc2)c(C)c1` (stereo not drawn) [Example 2/1], in assay [1], the EC50 fell in the range of 1000 to 10000 nM and the “behavior in FRET assay” value is listed as “ia”. Besides, in assay [2], the “M2H Gal4α LBD activity range (EC50)” value is “inactive”. The “M2H Gal4β LBD activity range (EC50)” value in assay [3] was “inactive”.

In the case of `Cc1cc(C)c(S(=O)(=O)N(Cc2ccc(-c3cccc(S(=O)(=O)CCCC(=O)O)c3)cc2)Cc2ccc(C(F)(F)F)o2)c(C)c1` [7/2], the values for the EC50 in assay [1], in assay [2] and in assay [3] were 1000 to 10000 nM, 100 to 1000 nM and 100 to 1000 nM, respectively. The “behavior in FRET assay” value in assay [1] was “ia”.

For the compound `Cc1cc(C)c(S(=O)(=O)N(Cc2ccc(C3=CS(=O)(=O)C(CC(=O)O)=C3)cc2)Cc2ccc(C(F)(F)F)o2)c(C)c1` [25/3], the EC50 in assay [1] fell in the range of 1000 to 10000 nM; in assay [2] it was 100 to 1000 nM; in assay [3], 100 to 1000 nM. For the same compound, in assay [1], the “behavior in FRET assay” value was “ia”.

For `Cc1cc(C)c(S(=O)(=O)N(Cc2ccc(-c3cccc(C(F)(F)C(=O)O)c3)cc2)Cc2ccc(C(F)(F)F)o2)c(C)c1` [5/4], the EC50 in assay [1], in assay [2] and in assay [3] was 100 to 1000 nM throughout. For the same compound, in assay [1], the “behavior in FRET assay” value is reported as “ia”.

Take `Cc1cc(C)c(S(=O)(=O)N(Cc2ccc(-c3cccc([S+]([O-])CC(=O)O)c3)cc2)Cc2ccc(C(F)(F)F)o2)c(C)c1` (stereo not drawn) [11/17]: the EC50 in assay [1], in assay [2] and in assay [3] was 1000 to 10000 nM each time. For the same compound, in assay [1], the “behavior in FRET assay” value is “ia”.

With `Cc1cc(C)c(S(=O)(=O)N(Cc2ccc(-c3cccc(C(C)C(=O)O)c3)cc2)Cc2ccc(C(F)(F)F)o2)c(C)c1` (stereo not drawn) [7/4], the EC50 in assay [1] was 100 to 1000 nM; in assay [2] it was less than 100 nM; in assay [3], less than 100 nM. The “behavior in FRET assay” value in assay [1] is “ia”.

`Cc1cc(C)c(S(=O)(=O)N(Cc2ccc(-c3cccc(CC(=O)O)c3)cc2)Cc2cccc(C(F)(F)F)c2)c(C)c1` [2/4]: the EC50 was 100 to 1000 nM in assay [1], 100 to 1000 nM in assay [2] and less than 100 nM in assay [3]. Also, the “behavior in FRET assay” value in assay [1] is recorded as “ia”.

Regarding `Cc1cc(C)c(S(=O)(=O)N(Cc2ccc(-c3cccc(C4(C(=O)O)CC4)c3)cc2)Cc2ccc(C(F)(F)F)o2)c(C)c1` [7/6], the half-maximal effective concentration (EC50) is 100 to 1000 nM in assay [1], 100 to 1000 nM in assay [2] and less than 100 nM in assay [3]. The “behavior in FRET assay” value in assay [1] was “ia”.

Regarding `COC(=O)CS(=O)(=O)c1cccc(-c2ccc(CN(Cc3ccc(C(F)(F)F)o3)S(=O)(=O)c3c(C)cc(C)cc3C)cc2)c1` [Example 4, Methyl 2-((4′-(((2,4,6-trimethyl-N-((5-(trifluoromethyl)furan-2-yl)methyl)phenyl)sulfon-amido)methyl)-[1,1′-biphenyl]-3-yl)sulfonyl)acetate], the EC50 was less than 100 nM in assay [1], 1000 to 10000 nM in assay [2] and 100 to 1000 nM in assay [3]. Further, the “behavior in FRET assay” value in assay [1] is listed as “ia”.

On to `COc1ccc(-c2ccc(CN(Cc3ccc(C(F)(F)F)o3)S(=O)(=O)c3c(C)cc(C)cc3C)cc2)cc1C(C)(C)C(=O)O` [7/9], for which the values for the EC50 in assay [1], in assay [2] and in assay [3] were 1000 to 10000 nM, 100 to 1000 nM and less than 100 nM, respectively. In assay [1], the “behavior in FRET assay” value was “ia”.

`Cc1cc(C)c(S(=O)(=O)N(Cc2ccc(-c3cccc(Cc4nn[nH]n4)c3)cc2)Cc2ccc(C(F)(F)F)o2)c(C)c1` [Example C7, N-((3′-((2H-Tetrazol-5-yl)methyl)-[1,1′-biphenyl]-4-yl)methyl)-2,4,6-trimethyl-N-((5-(trifluoro-methyl)furan-2-yl)methyl)benzenesulfonamide]: the EC50 in assay [1] was in the range of 1000 to 10000 nM; in assay [2], 100 to 1000 nM; in assay [3], 100 to 1000 nM. The “behavior in FRET assay” value in assay [1] was “ia”.

The record behind these values is patent US20200115357A1, “LIVER X RECEPTORS (LXR) MODULATORS” (Phenex-FXR GmbH, priority 2017, published 2020).
